Test results taken from the supplement of paper PMC9912026.

System: A375_NRAS_Q61K_DOXind
Assay: pERK immunofluorescence relative to doxycycline-induced cells with 1 uM vemurafenib alone; higher = more ERK phosphorylation (less pathway inhibition)
Settings: drug treatment time 24 h, doxycycline 1000 ng/mL, doxycycline pre-induction time 24 h, vemurafenib background 1 µM
Outline: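 A375 cells with doxycycline-inducible FLAG-tagged mutant NRAS were given doxycycline or mock for 24 h. They then received two-drug dose combinations with a third drug held at 1 uM for 24 h. Fixed cells were stained for phospho-ERK T202/Y204 and imaged at 10× on an Operetta, with FLAG-negative cells excluded. The cytosolic population mean is normalised to induced cells given the 1 uM drug alone; the value is the mean of 2 technical replicates. pERK was measured by immunofluorescence with FLAG-negative cells excluded. Averages of 2 technical replicates.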

CNc1ncc2cc(-c3cc(NC(=O)NCCC(C)(C)C)c(F)cc3C)c(C)nc2n1 + O=C(c1ccc(F)c(F)c1Nc1ccc(I)cc1F)N1CC(O)([C@@H]2CCCCN2)C1 [Cobimetinib]
pERK immunofluorescence
Settings | drug B concentration 0 µM | drug B concentration 0.0001 µM | drug B concentration 0.000316228 µM | drug B concentration 0.001 µM | drug B concentration 0.00316228 µM | drug B concentration 0.01 µM | drug B concentration 0.0316228 µM | drug B concentration 0.1 µM | drug B concentration 0.316228 µM | drug B concentration 1 µM
drug A concentration 0 µM | – | 1.08 | 1.08 | 1.06 | 1.06 | 0.844 | 0.515 | 0.168 | 0.0479 | 0.0212
drug A concentration 0.000316228 µM | 0.724 | 0.706 | 0.786 | 0.747 | 0.709 | 0.579 | 0.323 | 0.0754 | 0.026 | 0.0165
drug A concentration 0.001 µM | 0.696 | 0.745 | 0.758 | 0.771 | 0.687 | 0.45 | 0.16 | 0.0453 | 0.0201 | 0.016
drug A concentration 0.00316228 µM | 0.664 | 0.697 | 0.767 | 0.651 | 0.592 | 0.268 | 0.0865 | 0.0262 | 0.0166 | 0.0158
drug A concentration 0.01 µM | 0.583 | 0.608 | 0.593 | 0.537 | 0.359 | 0.109 | 0.0388 | 0.0196 | 0.0161 | 0.0166
drug A concentration 0.0316228 µM | 0.455 | 0.528 | 0.47 | 0.389 | 0.185 | 0.0635 | 0.0285 | 0.0172 | 0.0158 | 0.0155
drug A concentration 0.1 µM | 0.306 | 0.31 | 0.287 | 0.187 | 0.0869 | 0.0387 | 0.0223 | 0.0174 | 0.0169 | 0.0168
drug A concentration 0.316228 µM | 0.122 | 0.116 | 0.108 | 0.077 | 0.0399 | 0.0224 | 0.0172 | 0.0164 | 0.0168 | 0.017
drug A concentration 1 µM | 0.0463 | 0.045 | 0.0414 | 0.0293 | 0.0209 | 0.0181 | 0.0173 | 0.0169 | 0.0172 | 0.0172
drug A concentration 3.16228 µM | 0.0225 | 0.0225 | 0.0215 | 0.0203 | 0.0207 | 0.0173 | 0.0169 | 0.0175 | 0.0169 | 0.0164
drug A concentration 10 µM | 0.0198 | 0.0196 | 0.0203 | 0.0186 | 0.0186 | 0.02 | 0.0189 | 0.0179 | 0.0182 | 0.0184
